Measured values published in US9855239B2, “Methods for the treatment and prevention of age-related retinal dysfunction” (University of Washington, priority 2008, dated 2018).
“Also recorded” adds a separate entry of the source.

What was measured:
[1] = Retinoid levels in eyes by HPLC, single dose; type: in vivo, mouse
Description: (§1) Forty eight hr dark-adapted, 10-month-old mice were gavaged with a single dose (˜80 mg/kg body weight) of 9-cis-R-Ac or control vehicle and exposed to strong illumination for 20 min (500 cd·m^−2 that bleached ˜90% rhodopsin). Next, mice were dark-adapted for 16 hr after which various analyses were performed (FIG. 1A). […] To investigate whether 9-cis-retinal was utilized to form isorhodopsin and to assess how much unliganded opsin was present in the mouse eyes, rhodopsin, isorhodopsin and opsin were purified by immunoaffinity chromatography from treated and control groups of mice. […] After bleaching, 9-cis-retinal is bound to opsin even in the presence of a functional retinoid cycle that produces 11-cis-retinal to regenerate rhodopsin. Eyes from non-bleached or bleached and dark-adapted untreated mice contained a small amount of free opsin.
(§2) 9-cis-R-Ac was prepared as previously described (Batten, M. L., et al. PLoS medicine 2, e333 (2005); Batten, M. L., et al. J Biol Chem 279, 10422-10432 (2004)). A dose of ˜80 mg/kg body weight of 9-cis-R-Ac in 150 μl vegetable oil was administered via gavage to each treated animal. Prior to single dose experiments (FIG. 1A, Table 1), 10-month-old mice were dark-adapted for more than 48 hr, gavaged with 9-cis-R-Ac or vehicle control solution 1 hr before bleaching, exposed to light for 20 min at 500 cd·m^−2 and dark-adapted for 16 hr before analysis.
All experimental procedures related to extraction, derivatization and separation of retinoids were carried out under dim red light provided by a Kodak No. 1 safelight filter (transmittance>560 nm) as described previously (Van Hooser, J. P., et al. Proceedings of the National Academy of Sciences of the United States of America 97, 8623-8628 (2000); Van Hooser, J. P., et al. J Biol Chem, 277, 19173-19182 (2002); Maeda, A., et al. J Biol Chem 280, 18822-18832 (2005); Van Hooser, J. P., Garwin, G. G. & Saari, J. C. Methods Enzymol 316, 565-575 (2000)). Eluted fractions of purified rhodopsin from 6 mouse eyes were combined (total 3.0 ml) and mixed with an equal volume of 100% methanol. The mixture was vortexed and incubated on ice for 15 min. Retinoids were extracted twice with an equal volume of 100% hexane (6 ml total). The combined extracts were dried under argon and retinoids were separated by normal phase HPLC (Beckman, Ultrasphere-Si, 5 μm, 4.6×250 mm) with 10% ethyl acetate and 90% hexane at a flow rate of 1.4 ml/min and detected at 325 nm by an HPI 100 HPLC with a diode array detector and HP Chemstation A.03.03 software. A2E was analyzed as previously described (Maeda, A., et al. J Biol Chem, 280, 18822-18832 (2005)).

[2] = target: T1, rhodopsin/opsin (Mus musculus, UniProt P15409); assay: Rhodopsin regeneration ratio of immunoaffinity-purified rhodopsin/opsin, single dose; type: in vivo
T1 construct: from tissue; host or cells: whole eyes of wild-type C57BL/6 female mice
Description: as §1, §2
Rhodopsin purification was done under dim red light as previously described (Zhu, L., et al. J Biot Chem, 279, 53828-53839 (2004)). […] Purified rhodopsin concentration was determined at 500 nm and total amount of opsin and rhodopsin at 280 nm with a Hewlett-Packard 8452A UV-visible spectrophotometer (Palczewski, K., Carruth, M. E., Adamus, G., McDowell, J. H. & Hargrave, P. A. Vision Research, 30, 1129-1137 (1990)). […]

[3] = test system: Lrat−/− and Rpe65−/− knockout mice; details: gastric gavage, Lrat−/− mice; cited from earlier work

T1 sequence (P15409 whole entry): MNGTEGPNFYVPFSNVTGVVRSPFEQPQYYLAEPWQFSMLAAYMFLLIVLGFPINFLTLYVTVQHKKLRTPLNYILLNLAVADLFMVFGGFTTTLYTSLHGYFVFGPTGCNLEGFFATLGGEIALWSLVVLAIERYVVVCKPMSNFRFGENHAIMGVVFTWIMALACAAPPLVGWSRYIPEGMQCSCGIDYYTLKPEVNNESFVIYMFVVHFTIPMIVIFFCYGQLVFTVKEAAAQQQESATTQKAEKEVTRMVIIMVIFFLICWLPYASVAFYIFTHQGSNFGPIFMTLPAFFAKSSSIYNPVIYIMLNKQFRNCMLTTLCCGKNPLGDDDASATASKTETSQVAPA

Structure (SMILES): CC(=O)OC/C=C(C)/C=C/C=C(C)\C=C\C1=C(C)CCCC1(C)C [9-cis-R-Ac, 9-cis-retinyl acetate]
- 9-cis-retinal in eyes ([1]; exposed to intense light, treated mice): Significant amounts of 9-cis-retinal were detected; also recorded: detected only in the eyes of 9-cis-R-Ac treated mice
- 9-cis-retinyl esters in eyes (RPE) ([1]; treated and exposed to intense light): significant amount of 9-cis-retinyl esters; also recorded: easily detectable; also recorded: detected only in the eyes of 9-cis-R-Ac treated mice
- amounts of 11-cis-retinal and all-trans-retinyl esters in eyes ([1]; treated vs control): not significantly affected; also recorded: similar
- 9-cis-retinal in eyes ([1]; unbleached treated mouse eyes): Only trace amounts
- regeneration ratio of rhodopsin (absorbance 498 nm/280 nm) ([2]; single dose ~80 mg/kg gavage, 10-month-old mice, bleached, 16 hr dark-adapted, treated vs control, 80 mg/kg): significantly higher; also recorded: improved; also recorded: slightly higher
- 9-cis-retinal extracted from purified proteins (bound chromophore) ([2]; single dose, samples from treated mice): a significant amount of 9-cis-retinal was detected
- total amount of purified protein ([2]; single dose, treated vs control): did not significantly differ
- beneficial effects compared with 9-cis-retinal [3]: same beneficial effects as 9-cis-retinal
